From US9790233B2, “Compositions and methods of modulating 15-PGDH activity” (CASE WESTERN RESERVE UNIVERSITY, priority 2012, dated 2017)
Where two headings read alike, the source gives them in different places.

Columns and labels:
Assay type in all cases: cell-based
[1] = system: 15-PGDH luciferase fusion construct in LS174T reporter cell line; test: 15-PGDH-luciferase fusion gene reporter induction, LS174T cells; details: Homo sapiens
[2] = system: 15-PGDH luciferase fusion construct in V9m reporter cell line; test: 15-PGDH-luciferase fusion gene reporter induction, V9m cells
[3] = system: 15-PGDH luciferase fusion construct in Vaco503 reporter cell line; test: 15-PGDH-luciferase fusion gene reporter induction, V503 cells
[4] = read-out: Ls174T-SC1 reporter activity, % ([…]), […], Table 18, read-out: Ls174T-SC1 reporter activity, % (2.5 μM)
[5] = read-out: Ls174T-SC1 reporter activity, % ([…]), […], Table 18, read-out: Ls174T-SC1 reporter activity, % (7.5 μM)
[6] = read-out: V9M-SC3 Reporter activity ([…]) (%), […], Table 18, read-out: V9M-SC3 Reporter activity (2.5 μM) (%)
[7] = read-out: V503-3H9-7 reporter activity, % ([…]), […], Table 18, read-out: V503-3H9-7 reporter activity, % (2.5 μM)
[8] = read-out: V503-3H9-7 reporter activity, % ([…]), […], Table 18, read-out: V503-3H9-7 reporter activity, % (7.5 μM)
[9] = read-out: Ls174T-SC1 reporter activity, % ([…]), LS174T reporter cells, […] compound, % induction of luciferase activity over basal level, read-out: Ls174T-SC1 reporter activity, % (2.5 μM)
[10] = read-out: Ls174T-SC1 reporter activity, % ([…]), LS174T reporter cells, […] compound, % induction of luciferase activity over basal level, read-out: Ls174T-SC1 reporter activity, % (7.5 μM)
[11] = read-out: V9M-SC3 Reporter activity ([…]) (%), V9m reporter cells, […] compound, % induction of luciferase activity over basal level, read-out: V9M-SC3 Reporter activity (2.5 μM) (%)
[12] = read-out: V9M-SC3 Reporter activity ([…]), %, V9m reporter cells, […] compound, % induction of luciferase activity over basal level, read-out: V9M-SC3 Reporter activity (7.5 μM), %
[13] = read-out: V503-3H9-7 reporter activity, % ([…]), V503 reporter cells, […] compound, % induction of luciferase activity over basal level, read-out: V503-3H9-7 reporter activity, % (2.5 μM)
[14] = read-out: V503-3H9-7 reporter activity, % ([…]), V503 reporter cells, […] compound, % induction of luciferase activity over basal level, read-out: V503-3H9-7 reporter activity, % (7.5 μM)

| Compound | activation at […] [1, 9] [%] | activation at […] [1, 10] [%] | activation at […] [2, 11] [%] | activation at […] [2, 12] [%] | activation at […] [3, 13] [%] | activation at […] [3, 14] [%] | also measured |
| --- | --- | --- | --- | --- | --- | --- | --- |
| CCc1ccccc1N(CC(=O)Nc1cccnc1)S(=O)(=O)c1ccccc1 [528580−69−0] | – | – | – | – | – | – | activation at […] [1, 4]: 11.5%; activation at […] [1, 5]: -4.81%; activation at […] [2, 6]: 4.71%; activation at […] [3, 7]: 66%; activation at […] [3, 8]: 110% |
| COc1ccc(OC)c(N(CC(=O)Nc2ccccc2C(N)=O)S(=O)(=O)c2ccccc2)c1 [530107-57-4] | – | – | – | – | – | – | activation at […] [1, 4]: 5.45%; activation at […] [1, 5]: 8.27%; activation at […] [2, 6]: 59.5%; activation at […] [3, 7]: 52.6%; activation at […] [3, 8]: 84.4% |
| COc1ccc(OC)c(N(CC(=O)Nc2cccnc2)S(=O)(=O)c2ccc(OC)c(OC)c2)c1 [680599−58−0] | – | – | – | – | – | – | activation at […] [1, 4]: 11.5%; activation at […] [1, 5]: -13.8%; activation at […] [2, 6]: -5.29%; activation at […] [3, 7]: 16.7%; activation at […] [3, 8]: 28.9% |
| O=C(CN(c1ccc2c(c1)OCCO2)S(=O)(=O)c1ccccc1)Nc1cccnc1 [701217-00-7] | – | – | – | – | – | – | activation at […] [1, 4]: -6.89%; activation at […] [1, 5]: -0.54%; activation at […] [2, 6]: -2.05%; activation at […] [3, 7]: 20.1%; activation at […] [3, 8]: 33.4% |
| O=C(CN(c1cc(Cl)ccc1Cl)S(=O)(=O)c1ccccc1)Nc1cccnc1 [833428−03−8] | – | – | – | – | – | – | activation at […] [1, 4]: 25.1%; activation at […] [1, 5]: 47.4%; activation at […] [2, 6]: -4.1%; activation at […] [3, 7]: 96.4%; activation at […] [3, 8]: 150% |
| CS(=O)(=O)c1sc2nc(-c3cccs3)cc(-c3ccccc3)c2c1N [SW033290, 2-(methylsulfonyl)-4-phenyl-6-(thiophen-2-yl)thieno[2,3-b]pyridin-3-amine] | – | – | – | – | – | – | activation at […] ([1]; read-out: LS174T reporter activity ([…]), […], % increased luciferase activity over basal level, read-out: LS174T reporter activity (2.5 uM)): -0.24%; activation at […] ([1]; read-out: LS174T reporter activity ([…]), […], % increased luciferase activity over basal level, read-out: LS174T reporter activity (7.5 uM)): -6.58%; activation at […] ([2]; read-out: V9M reporter activity ([…]), […], % increased luciferase activity over basal level, 100 = doubling, read-out: V9M reporter activity (2.5 uM)): -34.3%; activation at […] ([2]; read-out: V9M reporter activity ([…]), […], % increased luciferase activity over basal level, 100 = doubling, read-out: V9M reporter activity (7.5 uM)): -25.4%; activation at […] ([3]; read-out: V503 reporter activity ([…]), […], % increased luciferase activity over basal level, read-out: V503 reporter activity (2.5 uM)): 30.9%; activation at […] ([3]; read-out: V503 reporter activity ([…]), […], % increased luciferase activity over basal level, read-out: V503 reporter activity (7.5 uM)): 17.7% |
| COc1ccc(OC)c(N(CC(=O)O)S(=O)(=O)c2ccccc2)c1 [SW122063] | 22.6 | 19.9 | 1.67 | 4.8 | 42.5 | 44.1 | – |
| COc1ccc(OC)c(N(CC(=O)N2CCCCC2)S(=O)(=O)c2ccccc2)c1 [SW131633] | 8.42 | 150 | 77.2 | 141 | 104 | -40.6 | – |
| COc1ccc(OC)c(N(CC(N)=O)S(=O)(=O)c2ccccc2)c1 [SW131635] | 111 | 14.1 | 11.4 | 15.1 | -37.7 | 14.4 | – |
| COc1ccc(OC)c(N(CC(=O)Nc2cccnc2)S(=O)(=O)c2ccc(C)cc2)c1 [SW202939] | 75.5 | 166 | 75.3 | 128 | 26.6 | 27.3 | – |
| COc1ccc(OC)c(N(CC(=O)Nc2ccccn2)S(=O)(=O)c2ccccc2)c1 [SW202941] | -23.8 | -43.2 | -10.9 | 2.57 | 75.9 | 83.5 | – |
| COc1ccc(OC)c(N(CC(=O)Nc2cccnc2)S(=O)(=O)c2ccccc2C)c1 [SW202943] | 33.1 | 55.7 | 7.12 | 17.8 | 72.3 | 147 | – |
| COc1ccc(OC)c(N(CC(=O)Nc2cccnc2)S(=O)(=O)c2ccccc2C(F)(F)F)c1 [SW202944] | 32.5 | 15.8 | -0.95 | -3.73 | 131 | 94.6 | – |
| COc1ccc(OC)c(N(CC(=O)Nc2cccnc2)S(=O)(=O)c2ccccc2C#N)c1 [SW202945] | 45.7 | 135 | 28.5 | 90 | 34 | 127 | – |
| COc1ccc(OC)c(N(CC(=O)Nc2ccnc(Cl)c2)S(=O)(=O)c2ccccc2)c1 [SW202946] | 105 | -23.6 | 64.6 | -41.5 | 137 | 34.3 | – |
| COc1ccc(OC)c(N(CC(=O)Nc2cccnc2)S(=O)(=O)c2ccccc2F)c1 [SW202947] | 52 | 21.2 | 21.9 | 2.57 | 143 | 97.8 | – |
| COc1ccc(OC)c(NCC(=O)Nc2cccnc2)c1 [SW202948] | -6.73 | 8.36 | -22 | -23.1 | 16.4 | 7.54 | – |
| COc1ccc(OC)c(N(CC(=O)Nc2cccnc2)S(=O)(=O)c2ccccc2Cl)c1 [SW202949] | -1.58 | -5.87 | 5.76 | -5.69 | -12.5 | 5.32 | – |
| COc1ccc(OC)c(N(CC(=O)Nc2cccnc2)S(=O)(=O)c2ccc(C(C)=O)cc2)c1 [SW202950] | -2.7 | 10.7 | 12.6 | 23.9 | -6.56 | 12.9 | – |
| COc1ccc(OC)c(N(CC(=O)Nc2cccnc2)C(C)=O)c1 [SW202952] | -10.3 | 10.6 | -20.7 | -19.5 | 26.2 | 7.16 | – |
| COc1ccc(OC)c(N(CC(=O)Nc2cccnc2)S(=O)(=O)c2c(C)cc(C)cc2C)c1 [SW202953] | 20.7 | 30.7 | 13 | 34.8 | 32 | 50.9 | – |
| COc1ccc(OC)c(N(CC(=O)Nc2cccnc2)S(=O)(=O)c2ccccc2OC(F)(F)F)c1 [SW202954] | -4.59 | -6.99 | 2.7 | 4.8 | -8.94 | 2.39 | – |
| COc1ccc(OC)c(N(CC(=O)Nc2ccccc2OC)S(=O)(=O)c2ccccc2)c1 [SW202965] | -23.5 | 3.52 | -30.9 | -25.8 | 23.8 | 98.1 | – |
| COc1ccc(OC)c(N(CC(=O)Nc2ccnc(C)c2)S(=O)(=O)c2ccccc2)c1 [SW202966] | 1.82 | 78.2 | -0.84 | 67.7 | 115 | 249 | – |
| COc1ccc(OC)c(N(CC(=O)Nc2cnccc2C)S(=O)(=O)c2ccccc2)c1 [SW202967] | -11.7 | 9.37 | -16 | 0 | 34 | 69.6 | – |
| COc1ccc(OC)c(N(CC(=O)Nc2cccnc2C)S(=O)(=O)c2ccccc2)c1 [SW202968] | -17.5 | 6.08 | -21.1 | -7.36 | 35.2 | 53.9 | – |
| COc1ccc(OC)c(N(CC(=O)Nc2cccc(C)c2)S(=O)(=O)c2ccccc2)c1 [SW202969] | -15.9 | 17.9 | -21 | -14.3 | 62.4 | 126 | – |
| COc1ccc(OC)c(N(CC(=O)Nc2ccc(Cl)nc2)S(=O)(=O)c2ccccc2)c1 [SW202970] | 47.9 | 55.9 | 32.7 | 17.8 | 179 | 122 | – |
| COc1ccc(OC)c(N(CC(=O)OC(C)C)S(=O)(=O)c2ccccc2)c1 [SW202971] | -7.91 | 34.5 | -14.5 | 9.67 | 85.5 | 169 | – |
